Test results from patent US9126935B2, “Aurora kinase modulators and methods of use” (Amgen Inc., priority 2008, dated 2015).

What was measured:
AuroraB = molecular target: T1, AuroraB (Homo sapiens, UniProt Q96GD4); experiment: AuroraB Homogeneous Time Resolved Fluorescent (HTRF) kinase assay; type: biochemical; settings: average; ATP 23 μM; read-out: AurB_IC50_IP (uM Avg)
T1 construct: 20 μL of AuroraB FL His for a final volume of 41 μL; His
Method: The AuroraB HTRF assay begins with AuroraB in the presence of ATP phosphorylating the biotinylated peptide Histone H3. The reaction incubates for about 90 min. the reaction is quenched by addition of detection reagents, which stop the reaction by diluting out the enzyme and chelating the metals due to the presence of EDTA. After addition, the assay is incubated for about 60 min to allow detection reagents to equilibrate.
The AuroraB HTRF assay comprises 1 μL of compound in 100% DMSO, 20 μL of ATP and biotinylated Histone H3, and 20 μL of AuroraB FL His for a final volume of 41 μL. The final concentration of Histone H3 is 0.1 μM. The final concentration of ATP is 23 μM (Km(app)=23 μM+/−2.6) and the final concentration of AuroraB is 400 pM. Buffer conditions are as follows: 50 mM HEPES pH 7.5, 5 mM NaCl, 0.5 mM MgCl, 0.5 mM MnCl, 2 mM DTT, 0.05% BSA.
(§1) The assay is quenched and stopped with 160 μL of detection reagent. Detection reagents are as follows: Buffer made of 50 mM Tris, pH 7.5, 100 mM NaCl, 3 mM EDTA, 0.05% BSA, 0.1% Tween20. Added to this buffer prior to reading is Steptavidin allophycocyanin (SA-APC) at a final conc in the assay of 0.001 mg/mL, and europilated anti-phosphoHistoneH3 Ab (Eu-anti-His H3) at a final conc of 0.064 nM.
(§2) The assay plate is read in either a Discovery or a RubyStar. The eu-anti-His H3 is excited at 320 nm and emits at 615 nm to excite the SA-APC which in turn emits at 655 nm. The ratio of SA-APC at 655 nm (excited due to close proximity to the Eu-anti-H is H3 because of phosphorylation of the peptide) to free Eu-anti-His H3 at 615 nm will give substrate phosphorylation.

AuroraA-TPX2 = molecular target: T2, AuroraA-TPX2 (Homo sapiens, UniProt O14965); experiment: AuroraA-TPX2 Homogeneous Time Resolved Fluorescent (HTRF) kinase assay; type: biochemical; settings: average; ATP about 1 μM; read-out: AurA _IC50_ IP (uM Avg)
T2 construct: 20 μL of AuroraA-TPX2 KD GST for a final volume of about 41 μL; GST
T2 sequence (O14965 133-383 limits assumed): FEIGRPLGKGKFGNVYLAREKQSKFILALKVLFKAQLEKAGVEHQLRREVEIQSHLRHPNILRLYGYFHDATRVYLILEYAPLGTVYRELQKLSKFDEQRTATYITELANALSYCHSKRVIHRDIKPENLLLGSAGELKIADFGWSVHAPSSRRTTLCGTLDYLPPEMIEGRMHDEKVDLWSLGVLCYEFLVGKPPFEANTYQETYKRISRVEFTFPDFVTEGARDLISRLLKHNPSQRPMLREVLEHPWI
T2 sequence (Q9ULW0 1-43 partner limits assumed): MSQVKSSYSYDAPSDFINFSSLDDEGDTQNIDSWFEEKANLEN
Method: The Aurora-A HTRF assay begins with Aurora-A in the presence of ATP phosphorylating the biotinylated peptide PLK. The reaction incubates for about 120 min. Detection reagents are added to quench the reaction. These agents stop the reaction by diluting out the enzyme and chelating the metals due to the presence of EDTA. After addition, the assay is incubated overnight to allow the detection reagents to equilibrate.
The AuroraA HTRF assay comprises 1 μL of compound in 100% DMSO, 20 μL of ATP and biotinylated PLK, and 20 μL of AuroraA-TPX2 KD GST for a final volume of about 41 μL. The final concentration of PLK is about 1 μM. The final concentration of ATP is about 1 μM (Km(app)=1 μM+/−0.1) and the final concentration of AuroraA is about 5 nM. Buffer conditions are as follows: 60 mM HEPES pH 7.5, 25 mM NaCl, 10 mM MgCl, 2 mM DTT, 0.05% BSA.
as §1, with “0.0005” for “0.001”, “anti-phosphoPLK” for “anti-phosphoHistoneH3”, “(Eu-anti-PLK)” for “(Eu-anti-His H3)”, “0.02” for “0.064”
as §2, with “eu-anti-PLK” for “eu-anti-His H3”, “Eu-anti-PLK” for “Eu-anti-H is H3”, “Eu-anti-PLK” for “Eu-anti-His H3”

HeLa cells = experiment: HeLa cell 24 hr ploidy assay; type: cell-based; settings: Homo sapiens, 24 hrs treatment, average, read-out: 24h_4N Ploidy EC50_IP (uM Avg)
Method: The purpose of this assay is to evaluate the ability of selected individual compounds to induce Deoxyribonucleic acid (DNA) content (ploidy) in cells through failed cell division. Cell cycle analysis is a rapid and efficient way to evaluate the status of DNA content (ploidy) of a given cell. HeLa cells (1×10^4 HeLa cells/well) in 100 ul of media (MEM+10% FBS) were plated in 96-well plates (Packard View) and cultured for 24 hrs at 37° C. maintained in a 5% CO2 atmosphere. The following day, cells were treated for 24 hrs with inhibitor compounds (10 pt. Dose ranging from 0.0024-1.25 umol/L). The compounds were serially diluted in DMSO (0.25% final concentration). The cells were fixed (3.7% Formaldehyde and 1% glutaraldehyde) and permeabilized (1×PBS with 1% BSA and 0.2% Triton X-100) in preparation for nuclear staining. The well plates were stained for 45 minutes at RT in the dark using Hoechest 33342 nuclear stain at 0.5 ug·ml (Stock of 10 mg/ml, Invitrogen, CA, Cat # H3570). The nuclear stain was removed by aspiration and the cells were washed with wash buffer. A Cellomics Array Scan Vti plate reader was used to acquire the DNA ploidy data of the cells using Cell Cycle bioapplication. Numbers for each of “valid cell count/well”, “% of 4N cells” and “% of >4Ncells” were calculated with the assistance of an Activity Base 5.1ca software and dose curves were generated using an XLFit software. With XLFit, final EC50 IP and EC50 transit values, as well as the Max and Min, were calculated for each curve.

T1 sequence (Q96GD4 whole entry): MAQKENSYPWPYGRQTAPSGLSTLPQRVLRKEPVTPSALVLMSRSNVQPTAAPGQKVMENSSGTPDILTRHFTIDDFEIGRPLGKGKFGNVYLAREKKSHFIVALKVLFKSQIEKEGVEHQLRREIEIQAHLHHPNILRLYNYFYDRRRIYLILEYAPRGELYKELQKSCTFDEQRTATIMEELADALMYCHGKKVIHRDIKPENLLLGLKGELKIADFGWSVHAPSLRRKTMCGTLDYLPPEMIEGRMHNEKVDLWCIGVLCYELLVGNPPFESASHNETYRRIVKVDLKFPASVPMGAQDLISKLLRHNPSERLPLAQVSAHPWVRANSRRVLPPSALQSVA

| SMILES | IC50 (AuroraB) | IC50 (AuroraA-TPX2) | EC50 (HeLa cells) |
| --- | --- | --- | --- |
| COc1cnc2c(Oc3ccc(NC(=O)c4ccccc4NN4CCCCC4)cc3)ccnc2c1 [Example 20, N-(4-(7-methoxy-1,5-naphthyridin-4-yloxy)phenyl)-2-(piperidin-1-ylamino)benzamide] | 0.1 to 0.5 µM | 0.5 to 1 µM | 1 to 5 µM |
| CNC(=O)c1cc(Oc2ccc(NC(=O)c3ccccc3Nc3ccccc3)cc2)ccn1 [Example 21, N-methyl-4-(4-(2-(phenylamino)benzamido)phenoxy)picolinamide] | 0.1 to 0.5 µM | 1 to 5 µM | 1 to 5 µM |
| Nc1nccc(Oc2ccc(NC(=O)c3ccccc3Nc3ccc(F)cc3)cc2)n1 [Example 18, N-(4-(2-aminopyrimidin-4-yloxy)phenyl)-2-(4-fluorophenylamino)benzamide] | 0.1 to 0.5 µM | 0.1 to 0.5 µM | 1 to 5 µM |
| COc1cc2nccc(Oc3ccc(NC(=O)c4ccccc4Nc4cccc(F)c4)cc3)c2cc1OC [Example 13, N-(4-(6,7-dimethoxyquinolin-4-yloxy)phenyl)-2-(3-fluorophenylamino)benzamide] | < 0.1 µM | < 0.1 µM | < 0.1 µM |
| COc1ccc2c(Oc3ccc(NC(=O)c4ccccc4Nc4ccccc4)cc3F)ccnc2c1 [Example 17, N-(3-fluoro-4-(7-methoxyquinolin-4-yloxy)phenyl)-2-(phenylamino)benzamide] | < 0.1 µM | < 0.1 µM | 0.1 to 0.5 µM |
| COc1cnc2c(Oc3ccc(NC(=O)c4ccccc4Nc4ccccc4)cc3)ccnc2c1 [Example 15, N-(4-(7-methoxy-1,5-naphthyridin-4-yloxy)phenyl)-2-(phenylamino)benzamide] | < 0.1 µM | < 0.1 µM | < 0.1 µM |
| COc1cnc2c(Oc3ccc(NC(=O)c4cc(F)ccc4Nc4ccccc4)cc3)ccnc2c1 [Example 14, 5-fluoro-N-(4-(7-methoxy-1,5-naphthyridin-4-yloxy)phenyl)-2-(phenylamino)benzamide] | < 0.1 µM | < 0.1 µM | < 0.1 µM |
| COc1cc2nccc(Oc3ccc(NC(=O)c4ccccc4Nc4ccccc4)cc3)c2cc1OC [Example 12, N-(4-(6,7-dimethoxyquinolin-4-yloxy)phenyl)-2-(phenylamino)benzamide] | < 0.1 µM | < 0.1 µM | < 0.1 µM |

Results, then the compound that gave them:

| IC50 (AuroraB) | IC50 (AuroraA-TPX2) | EC50 (HeLa cells) | SMILES |
| --- | --- | --- | --- |
| < 0.1 µM | 1 to 5 µM | 0.5 to 1 µM | COc1cnc2c(Sc3ccc(NC(=O)c4ccccc4NN4CCC(OC)CC4)cc3)ccnc2c1 [Example 22, N-(4-(7-methoxy-1,5-naphthyridin-4-ylthio)phenyl)-2-(4-methoxypiperidin-1-ylamino)benzamide] |
| < 0.1 µM | 0.5 to 1 µM | 0.5 to 1 µM | COc1cnc2c(Sc3ccc(NC(=O)c4ccccc4NN4CCCCC4)cc3)ccnc2c1 [Example 19, N-(4-(7-methoxy-1,5-naphthyridin-4-ylthio)phenyl)-2-(piperidin-1-ylamino)benzamide] |
| < 0.1 µM | < 0.1 µM | < 0.1 µM | COc1cc2nccc(Oc3ccc(NC(=O)c4ccccc4Nc4ccc(F)cc4)cc3)c2cc1OC [Example 11, N-(4-(6,7-dimethoxyquinolin-4-yloxy)phenyl)-2-(4-fluorophenylamino)benzamide] |
| < 0.1 µM | < 0.1 µM |  | COc1cc2nccc(Oc3ccc(NC(=O)c4ccccc4Nc4ccccc4)cc3F)c2cc1OC [Example 16, N-(4-(6,7-dimethoxyquinolin-4-yloxy)-3-fluorophenyl)-2-(phenylamino)benzamide] |
